In US7368578B2, “Five-membered heterocyclic compounds” (Takeda Pharmaceutical Company Limited, priority 2002, dated 2008):

A melting point of 143 to 144 °C was found for CCOC(=O)c1cn(-c2ccccc2)nc1OCc1oc2cc(OCc3nc(-c4ccccc4)oc3C)ccc2c1-c1ccccc1 [Example 64, ethyl 3-({6-[(5-methyl-2-phenyl-1,3-oxazol-4-yl)methoxy]-3-phenyl-1-benzofuran-2-yl}methoxy)-1-phenyl-1H-pyrazole-4-carboxylate] in this work.
A melting point of 200 to 201 °C was found for Cc1oc(-c2ccccc2)nc1COc1ccc2c(-c3ccccc3)c(COc3nn(-c4ccccc4)cc3C(=O)O)oc2c1 [Example 65, 3-({6-[(5-methyl-2-phenyl-1,3-oxazol-4-yl)methoxy]-3-phenyl-1-benzofuran-2-yl}methoxy)-1-phenyl-1H-pyrazole-4-carboxylic acid] in this work.
A melting point of 118 to 119 °C was found for Cc1oc(-c2ccccc2)nc1COc1ccc2c(-c3ccccc3)c(COc3nn(-c4ccccc4)cc3CO)oc2c1 [Example 66, [3-({6-[(5-methyl-2-phenyl-1,3-oxazol-4-yl)methoxy]-3-phenyl-1-benzofuran-2-yl}methoxy)-1-phenyl-1H-pyrazol-4-yl]methanol] in this work.
A melting point of 176 to 177 °C was found for Cc1oc(-c2ccccc2)nc1COc1ccc2c(-c3ccccc3)c(COc3nn(-c4ccccc4)cc3C=O)oc2c1 [Example 67, 3-({6-[(5-methyl-2-phenyl-1,3-oxazol-4-yl)methoxy]-3-phenyl-1-benzofuran-2-yl}methoxy)-1-phenyl-1H-pyrazole-4-carbaldehyde] in this work.
A melting point of 125 to 126 °C was found for CCOC(=O)c1cn(Cc2ccccc2)nc1OCc1ccc(OCc2nc(-c3ccco3)oc2C)c(CC)c1 [Example 68, ethyl 1-benzyl-3-[(3-ethyl-4-{[2-(2-furyl)-5-methyl-1,3-oxazol-4-yl]methoxy}benzyl)oxy]-1H-pyrazole-4-carboxylate] in this work.
A melting point of 173 to 174 °C was found for CCc1cc(COc2nn(Cc3ccccc3)cc2C(=O)O)ccc1OCc1nc(-c2ccco2)oc1C [Example 69, 1-benzyl-3-[(3-ethyl-4-{[2-(2-furyl)-5-methyl-1,3-oxazol-4-yl]methoxy}benzyl)oxy]-1H-pyrazole-4-carboxylic acid] in this work.
A melting point of 128 to 129 °C was found for CCc1cc(COc2nn(Cc3ccccc3)cc2C=O)ccc1OCc1nc(-c2ccco2)oc1C [Example 71, 1-benzyl-3-[(3-ethyl-4-{[2-(2-furyl)-5-methyl-1,3-oxazol-4-yl]methoxy}benzyl)oxy]-1H-pyrazole-4-carbaldehyde] in this work.
A melting point of 184 to 185 °C was found for COc1cc(COc2nn(-c3ccccc3)cc2C(=O)O)ccc1OCc1nc(-c2ccco2)oc1C [Example 73, 3-[(4-{[2-(2-furyl)-5-methyl-1,3-oxazol-4-yl]methoxy}-3-methoxybenzyl)oxy]-1-phenyl-1H-pyrazole-4-carboxylic acid] in this work.
A melting point of 175 to 176 °C was found for COc1cc(COc2nn(-c3ccccc3)cc2C(N)=O)ccc1OCc1nc(-c2ccco2)oc1C [Example 74, 3-[(4-{[2-(2-furyl)-5-methyl-1,3-oxazol-4-yl]methoxy}-3-methoxybenzyl)oxy]-1-phenyl-1H-pyrazole-4-carboxamide] in this work.
A melting point of 177 to 178 °C was found for CCOC(=O)/C=C/c1cn(-c2ccccc2)nc1OCc1ccc(OCc2nc(-c3ccco3)oc2C)c(OC)c1 [Example 78, ethyl (2E)-3-{3-[(4-{[2-(2-furyl)-5-methyl-1,3-oxazol-4-yl]methoxy}-3-methoxybenzyl)oxy]-1-phenyl-1H-pyrazol-4-yl}-2-propenoate] in this work.
A melting point of 204 to 205 °C was found for COc1cc(COc2nn(-c3ccccc3)cc2/C=C/C(=O)O)ccc1OCc1nc(-c2ccco2)oc1C [Example 79, (2E)-3-{3-[(4-{[2-(2-furyl)-5-methyl-1,3-oxazol-4-yl]methoxy}-3-methoxybenzyl)oxy]-1-phenyl-1H-pyrazol-4-yl}-2-propenoic acid] in this work.
A melting point of 152 to 153 °C was found for Cc1oc(-c2ccccc2)nc1COc1ccc(COc2nn(-c3ccccc3)cc2C=O)cc1 [Example 80, 3-({4-[(2-phenyl-5-methyl-1,3-oxazol-4-yl)methoxy]benzyl}oxy)-1-phenyl-1H-pyrazole-4-carbaldehyde] in this work.
A melting point of 118 to 119 °C was found for Cc1oc(-c2ccccc2)nc1COc1ccc(COc2nn(-c3ccccc3)cc2CO)cc1 [Example 81, [3-({4-[(2-phenyl-5-methyl-1,3-oxazol-4-yl)methoxy]benzyl}oxy)-1-phenyl-1H-pyrazol-4-yl]methanol] in this work.
A melting point of 154 to 155 °C was found for CCOC(=O)/C=C/c1cn(-c2ccccc2)nc1OCc1ccc(OCc2nc(-c3ccccc3)oc2C)cc1 [Example 82, ethyl (2E)-3-[3-({4-[(2-phenyl-5-methyl-1,3-oxazol-4-yl)methoxy]benzyl}oxy)-1-phenyl-1H-pyrazol-4-yl]-2-propenoate] in this work.
A melting point of 186 to 187 °C was found for Cc1oc(-c2ccccc2)nc1COc1ccc(COc2nn(-c3ccccc3)cc2/C=C/C(=O)O)cc1 [Example 83, (2E)-3-[3-({4-[(2-phenyl-5-methyl-1,3-oxazol-4-yl)methoxy]benzyl}oxy)-1-phenyl-1H-pyrazol-4-yl]-2-propenoic acid] in this work.
A melting point of 148 to 149 °C was found for Cc1oc(-c2ccco2)nc1COc1ccc(COc2nn(-c3ccccc3)cc2C=O)cc1 [Example 85, 3-[(4-{[2-(2-furyl)-5-methyl-1,3-oxazol-4-yl]methoxy}benzyl)oxy]-1-phenyl-1H-pyrazole-4-carbaldehyde] in this work.
A melting point of 142 to 143 °C was found for CCOC(=O)/C=C/c1cn(-c2ccccc2)nc1OCc1ccc(OCc2nc(-c3ccco3)oc2C)cc1 [Example 87, ethyl (2E)-3-(3-[(4-{[2-(2-furyl)-5-methyl-1,3-oxazol-4-yl]methoxy}benzyl)oxy]-1-phenyl-1H-pyrazol-4-yl}-2-propenoate] in this work.
A melting point of 144 to 145 °C was found for Cc1oc(-c2ccco2)nc1COc1ccc(COc2nn(-c3ccccc3)cc2/C=C/C(=O)O)cc1 [Example 88, (2E)-3-{3-[(4-{[2-(2-furyl)-5-methyl-1,3-oxazol-4-yl]methoxy}benzyl)oxy]-1-phenyl-1H-pyrazol-4-yl}-2-propenoic acid] in this work.
A melting point of 158 to 159 °C was found for Cc1oc(-c2ccco2)nc1COc1ccc(COc2nn(-c3ccccc3)cc2C#N)cc1 [Example 89, 3-[(4-{[2-(2-furyl)-5-methyl-1,3-oxazol-4-yl]methoxy}benzyl)oxy]-1-phenyl-1H-pyrazole-4-carbonitrile] in this work.
A melting point of 157 to 158 °C was found for Cc1oc(-c2ccccc2)nc1COc1ccc(OCc2nc(-c3ccccc3)oc2CO)cc1 [Example 91, [4-({4-[(5-methyl-2-phenyl-1,3-oxazol-4-yl)methoxy]phenoxy}methyl)-2-phenyl-1,3-oxazol-5-yl]methanol] in this work.
A melting point of 74 to 75 °C was found for COCOCc1nc(-c2ccccc2)oc1COc1ccc(OCc2nc(-c3ccccc3)oc2C)cc1 [Example 92, 4-[(methoxymethoxy)methyl]-5-({4-[(5-methyl-2-phenyl-1,3-oxazol-4-yl)methoxy]phenoxy}methyl)-2-phenyl-1,3-oxazole] in this work.
A melting point of 143 to 144 °C was found for Cc1oc(-c2ccccc2)nc1COc1ccc(OCc2oc(-c3ccccc3)nc2CO)cc1 [Example 93, [5-({4-[(5-methyl-2-phenyl-1,3-oxazol-4-yl)methoxy]phenoxy}methyl)-2-phenyl-1,3-oxazol-4-yl]methanol] in this work.
A melting point of 187 to 188 °C was found for COc1cc(COc2nn(-c3ccccc3)cc2/C=C/C(N)=O)ccc1OCc1nc(-c2ccco2)oc1C [Example 94, (2E)-3-{3-[(4-{[2-(2-furyl)-5-methyl-4-oxazolyl]methoxy}-3-methoxybenzyl)oxy]-1-phenyl-1H-pyrazol-4-yl}-2-propenamide] in this work.
A melting point of 177 to 178 °C was found for COc1cc(COc2nn(-c3ccccc3)cc2/C=C/C#N)ccc1OCc1nc(-c2ccco2)oc1C [Example 95, (2E)-3-{3-[(4-{[2-(2-furyl)-5-methyl-1,3-oxazol-4-yl]methoxy}-3-methoxybenzyl)oxy]-1-phenyl-1H-pyrazol-4-yl}-2-propenenitrile] in this work.
A melting point of 190 to 191 °C was found for COc1cc(COc2nn(-c3ccccc3)cc2C=C(C#N)C#N)ccc1OCc1nc(-c2ccco2)oc1C [Example 96, ({3-[(4-{[2-(2-furyl)-5-methyl-1,3-oxazol-4-yl]methoxy}-3-methoxybenzyl)oxy]-1-phenyl-1H-pyrazol-4-yl)methylene) malononitrile] in this work.
A melting point of 180 to 181 °C was found for COc1cc(COc2nn(-c3ccccc3)cc2/C=C/C(=O)N2CCOCC2)ccc1OCc1nc(-c2ccco2)oc1C [Example 98, 4-((2E)-3-{3-[(4-{[2-(2-furyl)-5-methyl-1,3-oxazol-4-yl]methoxy}-3-methoxybenzyl)oxy]-1-phenyl-1H-pyrazol-4-yl}-2-propenoyl)morpholine] in this work.
A melting point of 162 to 163 °C was found for COc1cc(COc2nn(-c3ccccc3)cc2/C=C/C2=NCCO2)ccc1OCc1nc(-c2ccco2)oc1C [Example 99, 4-({4-[({4-[(E)-2-(4,5-dihydro-1,3-oxazol-2-yl)ethenyl]-1-phenyl-1H-pyrazol-3-yl}oxy)methyl]-2-methoxyphenoxy}methyl)-2-(2-furyl)-5-methyl-1,3-oxazole] in this work.
A melting point of 121 to 122 °C was found for COCc1cn(-c2ccccc2)nc1OCc1ccc(OCc2nc(-c3ccco3)oc2C)c(OC)c1 [Example 101, 2-(2-furyl)-4-{[2-methoxy-4-({[4-(methoxymethyl)-1-phenyl-1H-pyrazol-3-yl]oxy}methyl)phenoxy]methyl}-5-methyl-1,3-oxazole] in this work.
A melting point of 103 to 104 °C was found for CNCc1cn(-c2ccccc2)nc1OCc1ccc(OCc2nc(-c3ccco3)oc2C)c(OC)c1 [Example 102, N-({3-[(4-{[2-(2-furyl)-5-methyl-1,3-oxazol-4-yl]methoxy}-3-methoxybenzyl)oxy]-1-phenyl-1H-pyrazol-4-yl}methyl)-N-methylamine] in this work.
A melting point of 123 to 124 °C was found for COc1cc(COc2nn(-c3ccccc3)cc2CCO)ccc1OCc1nc(-c2ccco2)oc1C [Example 104, 2-{3-[(4-{[2-(2-furyl)-5-methyl-1,3-oxazol-4-yl]methoxy}-3-methoxybenzyl)oxy]-1-phenyl-1H-pyrazol-4-yl}ethanol] in this work.
A melting point of 215 to 216 °C was found for COc1cc(COc2nn(-c3ccccc3)cc2/C=C2\SC(=O)N(C)C2=O)ccc1OCc1nc(-c2ccco2)oc1C [Example 105, (5Z)-5-({3-[(4-{[2-(2-furyl)-5-methyl-1,3-oxazol-4-yl]methoxy}-3-methoxybenzyl)oxy]-1-phenyl-1H-pyrazol-4-yl}methylene)-3-methyl-1,3-thiazolidine-2,4-dione] in this work.
